{
  "source": "paper PMC7782983",
  "about": "“Anion inhibition studies of the Zn(II)-bound ι-carbonic anhydrase from the Gram-negative bacterium Burkholderia territorii” (Journal of Enzyme Inhibition and Medicinal Chemistry, 2021)",
  "data": [
    {"target": "BteCAι", "assay": "stopped-flow CO2 hydrase assay", "type": "biochemical, Burkholderia territorii", "settings": "CO2 hydration, HEPES pH 7.5, 20 mM NaClO4, 15 min preincubation, room temperature; Zn(II) enzyme; read-out: KI (mM)^a / BteCAι^d", "units": {"Ki": "mM"}, "values": [
      {"smiles": "NS(=O)(=O)O", "note": "[NH2SO3H]", "Ki": 0.0062},
      {"smiles": "O=S(=O)(O)OOS(=O)(=O)O", "note": "[S2O8^2−]", "Ki": 7.4},
      {"smiles": "O=C(O)O", "note": "[CO3^2−]", "Ki": 4.4},
      {"smiles": "CCN(CC)C(=S)S", "note": "[EtNCS2^−]", "Ki": 0.81},
      {"smiles": "O=C(O)O", "note": "[HCO3^−]", "Ki": 0.94},
      {"smiles": "NS(N)(=O)=O", "note": "[NH2SO2NH2]", "Ki": 0.086},
      {"smiles": "OB(O)c1ccccc1", "note": "[PhB(OH)2]", "Ki": 0.009},
      {"smiles": "[O]=[Sn]([OH])[OH]", "note": "[SnO3^2−]", "Ki": 0.094},
      {"smiles": "Cl", "note": "[Cl^−]", "Ki": 3.1},
      {"smiles": "O=S(=O)(O)O", "note": "[SO4^2−]", "Ki": 5.8},
      {"smiles": "N#CO", "note": "[CNO^−]", "Ki": 0.79},
      {"smiles": "N#CS", "note": "[SCN^−]", "Ki": 6.1},
      {"smiles": "N#C[SeH]", "note": "[SeCN^−]", "Ki": 6.6}
    ]},
    {"target": "BteCAι", "assay": "stopped-flow CO2 hydrase assay", "type": "biochemical, Burkholderia territorii", "settings": "read-out: KI (mM)^a / BteCAι^d", "units": {"Ki": "mM"}, "values": [
      {"smiles": "O=[As](O)(O)c1ccccc1", "note": "[PhAsO3H2]", "Ki": 0.008}
    ]}
  ]
}
